The results in this text go back to patent publication EP3041456B1, “COMPOSITION AND METHOD FOR INDUCING OR STIMULATING GROWTH OF KERATINOUS FIBRES” (priority 2013, dated 2015).

Molecules are shown by their SMILES.

In data set [1] the test system is hair follicles. The data set can be described thus: Components of turpentine oil: number of hair follicles after 4-week topical treatment. The class given is in vivo, mice. The following applies: 4 weeks; for Mean number of hair follicles per 1 mm of skin +/- S.D.: 0.1 mL topically twice weekly, 10 mice per group. An excerpt:
(§1) The following commercially available, components of turpentine oil were investigated: • (-) α-pinene; product No 13.127.32 Janssen Chim. 2440 Geel, Belgium • (+) α-pinene; product No 13.126.31 Janssen Chim. 2440, Geel Belgium • (-) β-pinene; product No 15.032.94 Janssen Chim, Geel, Belgium • Turpentine oil crude industrial product was originated from Portugal.
(§2) Young adult, male mice of the N.M.R.I. strain, weighing at the beginning of the experiment +/- 30 g were used, as in previous experiments.
(§3) The protocols used were similar to those described in the previous experiments and study was realized during summer months (July and August). Hair coats were cut along the dorsal surfaces with electric clippers in an area of +/- 6.0 cm^2 two days before treatments. Mice were divided into 4 groups of 10 animals. Each mouse received either • (1) A dose of 0.1 mL of 5% absolute ethanol solution of turpentine oil, • (2) (-) α-pinene, • (3) (+) α-pinene or • (4) (-) β-pinene administered topically on the surface of the shaved skin twice weekly.
(§4) Control groups of the same number and similar age and sex mice were treated the same way but topically applied the solvent alone (absolute ethanol).
(§5) After a 4-week treatment duration all the mice were sacrificed by decapitation, and general autopsies were performed in which skin and main organs specimens were excised and fixed in 10% formalin for histological examination after paraffin embedding and hematoxylin -eosin staining.
(§6) The following evaluating criteria of the observations and results were used: • (1) body and main organ weights, • (2) skin and main organs histological patterns, • (3) semi quantitative evaluation of hair follicles per 1 mm long area in a 5 different areas of the histological sections of the skin of each animal in each group at 100 x microscopic magnification.

A short description of data set [2]: Components of turpentine oil: body and main organ weights, autopsy, histology. Format: in vivo, mice. Set-up: main organs' weights, Liver / main organs' weights, Spleen / main organs' weights, 2 kidneys / main organs' weights, 2 testicles / main organs' weights, Thymus / main organs' weights, Brain: unit not given here. The following applies: 5% in ethanol, 4 weeks; for Total body weight in gram / main organs' weights, 2 kidneys / main organs' weights, 2 testicles / main organs' weights, Brain / main organs' weights, Liver / main organs' weights, Spleen / main organs' weights, Thymus: Mean +/- S.D., 10 mice per group.
Text: as §1, §2, §3, §4, §5, §6

For the compound `CC1=CC[C@@H]2C[C@H]1C2(C)C` [(+) α-pinene, (1R)-(+)-α-pinene], the “Mean number of hair follicles per 1 mm of skin +/- S.D.” value in data set [1] (5% in absolute ethanol) is 28.9 per 1 mm of skin. Besides, in data set [1] (5% in absolute ethanol, listed as (+) α- pinene), the “Mean number of hair follicles per 1 mm of skin +/- S.D.” value is reported as 28.9 ± 6.4 per 1 mm of skin. The “activity (hair follicles multiplication) compared with the control group” value (“activity … compared with the control group” below) in data set [1] (5% in ethanol) was “only slightly superior to the effects of treatment with the solvent lone”. Besides, in data set [2], the “Total body weight in gram” value was 40.1 ± 3.73 gram; the “main organs' weights, 2 kidneys” value was 840 ± 89.7; the “main organs' weights, 2 testicles” value stood at 432 ± 34.9; the “main organs' weights, Brain” value is 658 ± 23.8. Moreover, in data set [2], the “main organs' weights, Liver” value turned out to be 2834 ± 283.4; the “main organs' weights, Spleen” value worked out at 390 ± 36.7; the “main organs' weights, Thymus” value came out at 266 ± 18.1.

For `CC1=CC[C@H]2C[C@@H]1C2(C)C` [(-) α-pinene, (1S)-(-)-α-pinene], the “Mean number of hair follicles per 1 mm of skin +/- S.D.” value in data set [1] (5% in absolute ethanol) is given as 52.6 per 1 mm of skin. In addition, the “Mean number of hair follicles per 1 mm of skin +/- S.D.” value in data set [1] (5% in absolute ethanol, listed as (-) α- pinene) is listed as 52.6 ± 7.8 per 1 mm of skin. Moreover, in data set [1] (5% in absolute ethanol, group of 10 mice), the “mice with more than 50 hair follicles” value is listed as 6 out of 10. For the same compound, in data set [1] (5% in ethanol), the “activity … compared with the control group” value is given as “more than double” and the “local skin alteration (clinical signs or microscopic examination)” value is given as “did not produce any local skin alteration”. In addition, in data set [2], the general toxicity entry is given as “neither any sign of a possible general toxicity”; the “Total body weight in gram” value was 39.5 ± .42 gram; the “main organs' weights, 2 kidneys” value is given as 814 ± 121.7; the “main organs' weights, 2 testicles” value was determined as 440 ± 41.8. Besides, in data set [2], the “main organs' weights, Brain” value worked out at 674 ± 23; the “main organs' weights, Liver” value is reported as 2790 ± 449.9; the “main organs' weights, Spleen” value worked out at 332 ± 24.9; the “main organs' weights, Thymus” value was 252 ± 22.8.

For the compound `C=C1CC[C@H]2C[C@@H]1C2(C)C` [(-) β-pinene, (1S)-(-)-β-pinene], the “Mean number of hair follicles per 1 mm of skin +/- S.D.” value in data set [1] (5% in absolute ethanol, listed as (-) β- pinene) is reported as 28.1 ± 7.6 per 1 mm of skin; in data set [1] (5% in absolute ethanol, listed as β-pinene) it was 28.1 per 1 mm of skin. In data set [1] (5% in ethanol), the “activity … compared with the control group” value is listed as “only slightly superior to the effects of treatment with the solvent lone”.
